Assay results: patent US20070149535A1, “Protein kinase inhibitors” (ONCALIS AG, priority 2004, published 2007)

Columns and labels:
Test in all cases: Yeast growth assay, specificity profiling
Assay type in all cases: cell-based
Design in all cases: key: “−” indicates no growth restoration i.e. no activity against the particular kinase; “+”, “++”, and “+++” indicate activity detected by restoration of growth, classified into three categories of potency; “+”, “++”, and “+++” indicate activity detected by restoration of growth, classified into three categories of potency; “+”, “++”, and “+++” indicate activity detected by restoration of growth, classified into three categories of potency
Conditions in all cases: 7 concentrations between 0.2 and 100 μM
VEGFR2 = biological target: T1, VEGFR2 (Homo sapiens, UniProt P35968)
T1 construct: expressed in transfected cells; host or cells: yeast
Experimental: (§1) Specificity Profiling: Yeast Growth Assay
(§2) The yeast growth assay was performed as described in “Method for the identification and/or validation of receptor tyrosine kinase inhibitors” PCT/CH03/00694 (2004/10/24), section “Modes for Carrying out the Invention, Experiment 1 and Experiment 2.
(§3) Briefly, yeast cells carrying plasmids with the RTK of interest were grown in glucose containing medium (repressing expression). The cultures were diluted into galactose containing medium, which induces the expression of the kinase. Expression of the kinase inhibits growth of the yeast cells, which allows for positive selection of kinase inhibitors restoring growth of cells. Compounds were titrated at 7 concentrations between 0.2 and 100 μM.
(§4) Specificity profiling of compounds, using the yeast growth assay method described above. “−” indicates no growth restoration i.e. no activity against the particular kinase, “+”, “++”, and “+++” indicate activity detected by restoration of growth, classified into three categories of potency according to the maximal level of growth restoration reached and the concentration at which the maximal growth restoration is reached.

EphB4 = biological target: T2, EphB4 (Homo sapiens, UniProt P54760)
T2 construct: expressed in transfected cells; host or cells: yeast
T2 sequence (P54760 16-987): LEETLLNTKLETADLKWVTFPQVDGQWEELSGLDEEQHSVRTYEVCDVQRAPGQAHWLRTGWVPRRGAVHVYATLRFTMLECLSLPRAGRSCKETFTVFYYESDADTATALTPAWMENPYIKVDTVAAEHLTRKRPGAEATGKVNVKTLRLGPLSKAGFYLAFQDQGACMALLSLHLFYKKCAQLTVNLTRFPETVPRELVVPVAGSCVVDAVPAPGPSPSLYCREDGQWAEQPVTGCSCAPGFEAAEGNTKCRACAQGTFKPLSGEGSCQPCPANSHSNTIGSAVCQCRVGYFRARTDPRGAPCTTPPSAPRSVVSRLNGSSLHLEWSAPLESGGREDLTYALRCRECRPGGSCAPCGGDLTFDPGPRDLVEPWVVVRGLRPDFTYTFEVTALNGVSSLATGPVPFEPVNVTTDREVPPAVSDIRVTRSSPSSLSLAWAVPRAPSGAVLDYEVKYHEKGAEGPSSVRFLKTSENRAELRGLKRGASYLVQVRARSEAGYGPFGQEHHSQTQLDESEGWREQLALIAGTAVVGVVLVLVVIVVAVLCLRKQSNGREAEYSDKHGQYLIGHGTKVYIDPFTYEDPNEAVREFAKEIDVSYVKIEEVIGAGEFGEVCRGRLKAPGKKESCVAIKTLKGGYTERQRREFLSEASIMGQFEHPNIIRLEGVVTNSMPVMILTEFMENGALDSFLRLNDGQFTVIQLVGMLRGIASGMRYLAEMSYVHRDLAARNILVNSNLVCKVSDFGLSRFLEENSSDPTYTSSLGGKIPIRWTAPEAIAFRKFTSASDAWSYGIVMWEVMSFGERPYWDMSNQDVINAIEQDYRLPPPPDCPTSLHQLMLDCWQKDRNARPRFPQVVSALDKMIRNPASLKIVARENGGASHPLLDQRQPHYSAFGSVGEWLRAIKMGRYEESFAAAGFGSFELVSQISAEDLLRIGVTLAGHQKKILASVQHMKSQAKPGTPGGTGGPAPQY
Experimental: as §1, §2, §3, §4

RET = biological target: T3, RET (Homo sapiens, UniProt P07949)
T3 construct: expressed in transfected cells; host or cells: yeast
Experimental: as §1, §2, §3, §4

VEGFR1 = biological target: T4, VEGFR1 (Homo sapiens, UniProt P17948)
T4 construct: expressed in transfected cells; host or cells: yeast
Experimental: as §1, §2, §3, §4

IGF-1R = biological target: T5, IGF-1R (Homo sapiens, UniProt P08069)
T5 construct: expressed in transfected cells; host or cells: yeast
Experimental: as §1, §2, §3, §4

EphA2 = biological target: T6, EphA2 (Homo sapiens, UniProt P29317)
T6 construct: expressed in transfected cells; host or cells: yeast
Experimental: as §1, §2, §3, §4

T6 sequence (P29317 24-976): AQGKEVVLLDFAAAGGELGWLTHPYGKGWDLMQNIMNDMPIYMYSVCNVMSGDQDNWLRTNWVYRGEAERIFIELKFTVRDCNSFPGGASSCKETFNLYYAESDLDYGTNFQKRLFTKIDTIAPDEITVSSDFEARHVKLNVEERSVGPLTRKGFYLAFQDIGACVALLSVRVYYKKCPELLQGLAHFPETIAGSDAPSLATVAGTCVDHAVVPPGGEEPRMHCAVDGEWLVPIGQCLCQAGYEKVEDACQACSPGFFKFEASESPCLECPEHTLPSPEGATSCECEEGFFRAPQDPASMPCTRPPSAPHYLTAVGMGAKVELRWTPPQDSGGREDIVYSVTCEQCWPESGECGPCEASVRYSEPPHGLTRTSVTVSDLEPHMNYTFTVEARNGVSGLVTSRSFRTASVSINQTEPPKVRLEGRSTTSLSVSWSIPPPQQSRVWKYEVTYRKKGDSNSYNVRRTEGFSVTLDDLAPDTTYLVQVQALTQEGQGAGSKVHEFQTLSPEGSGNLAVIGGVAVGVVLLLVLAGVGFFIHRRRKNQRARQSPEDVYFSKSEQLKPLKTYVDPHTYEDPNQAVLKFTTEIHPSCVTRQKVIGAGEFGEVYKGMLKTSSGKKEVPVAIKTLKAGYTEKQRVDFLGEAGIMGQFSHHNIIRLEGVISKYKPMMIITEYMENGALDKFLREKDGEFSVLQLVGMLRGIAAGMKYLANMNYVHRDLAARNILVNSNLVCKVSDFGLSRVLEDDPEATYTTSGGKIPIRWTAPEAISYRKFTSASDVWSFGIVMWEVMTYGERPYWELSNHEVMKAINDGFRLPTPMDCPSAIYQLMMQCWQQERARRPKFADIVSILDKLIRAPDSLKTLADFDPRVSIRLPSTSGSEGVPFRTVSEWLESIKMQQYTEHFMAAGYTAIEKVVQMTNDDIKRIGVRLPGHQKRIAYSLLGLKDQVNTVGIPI
T5 sequence (P08069 31-1367): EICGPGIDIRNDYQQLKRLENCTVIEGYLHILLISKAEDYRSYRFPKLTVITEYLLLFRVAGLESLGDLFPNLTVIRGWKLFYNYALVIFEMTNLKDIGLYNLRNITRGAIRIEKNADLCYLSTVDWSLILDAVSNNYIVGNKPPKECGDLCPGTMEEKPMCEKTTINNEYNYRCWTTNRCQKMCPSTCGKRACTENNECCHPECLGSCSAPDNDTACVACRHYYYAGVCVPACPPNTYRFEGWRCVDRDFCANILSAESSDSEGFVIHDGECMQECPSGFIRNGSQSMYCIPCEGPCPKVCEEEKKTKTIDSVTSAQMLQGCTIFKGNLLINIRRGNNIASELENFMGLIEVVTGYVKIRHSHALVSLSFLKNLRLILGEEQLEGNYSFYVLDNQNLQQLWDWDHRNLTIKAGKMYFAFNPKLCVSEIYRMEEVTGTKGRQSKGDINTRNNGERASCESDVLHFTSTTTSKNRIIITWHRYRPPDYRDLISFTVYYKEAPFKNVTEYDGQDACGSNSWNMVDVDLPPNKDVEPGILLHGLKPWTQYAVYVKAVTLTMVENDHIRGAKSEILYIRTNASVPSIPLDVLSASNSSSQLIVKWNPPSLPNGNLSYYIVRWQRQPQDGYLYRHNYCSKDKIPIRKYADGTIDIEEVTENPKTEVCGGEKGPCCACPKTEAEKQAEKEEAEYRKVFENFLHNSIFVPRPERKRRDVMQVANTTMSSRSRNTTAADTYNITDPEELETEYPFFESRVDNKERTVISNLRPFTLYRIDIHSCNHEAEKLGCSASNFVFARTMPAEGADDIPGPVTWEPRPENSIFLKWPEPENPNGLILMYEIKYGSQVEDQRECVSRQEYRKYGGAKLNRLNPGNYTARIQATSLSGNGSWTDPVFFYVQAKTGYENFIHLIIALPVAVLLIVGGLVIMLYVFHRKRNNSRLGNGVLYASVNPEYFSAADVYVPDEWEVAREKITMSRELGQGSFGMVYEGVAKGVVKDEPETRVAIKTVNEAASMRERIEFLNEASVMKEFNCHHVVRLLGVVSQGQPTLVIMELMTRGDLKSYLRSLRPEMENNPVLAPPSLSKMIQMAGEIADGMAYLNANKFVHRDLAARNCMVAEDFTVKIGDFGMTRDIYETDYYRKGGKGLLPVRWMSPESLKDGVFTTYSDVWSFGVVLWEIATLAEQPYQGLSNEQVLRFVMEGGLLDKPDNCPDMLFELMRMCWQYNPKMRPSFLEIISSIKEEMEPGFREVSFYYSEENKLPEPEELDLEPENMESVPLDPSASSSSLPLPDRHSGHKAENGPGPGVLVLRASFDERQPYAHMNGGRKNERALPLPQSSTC
T3 sequence (P07949 29-1114): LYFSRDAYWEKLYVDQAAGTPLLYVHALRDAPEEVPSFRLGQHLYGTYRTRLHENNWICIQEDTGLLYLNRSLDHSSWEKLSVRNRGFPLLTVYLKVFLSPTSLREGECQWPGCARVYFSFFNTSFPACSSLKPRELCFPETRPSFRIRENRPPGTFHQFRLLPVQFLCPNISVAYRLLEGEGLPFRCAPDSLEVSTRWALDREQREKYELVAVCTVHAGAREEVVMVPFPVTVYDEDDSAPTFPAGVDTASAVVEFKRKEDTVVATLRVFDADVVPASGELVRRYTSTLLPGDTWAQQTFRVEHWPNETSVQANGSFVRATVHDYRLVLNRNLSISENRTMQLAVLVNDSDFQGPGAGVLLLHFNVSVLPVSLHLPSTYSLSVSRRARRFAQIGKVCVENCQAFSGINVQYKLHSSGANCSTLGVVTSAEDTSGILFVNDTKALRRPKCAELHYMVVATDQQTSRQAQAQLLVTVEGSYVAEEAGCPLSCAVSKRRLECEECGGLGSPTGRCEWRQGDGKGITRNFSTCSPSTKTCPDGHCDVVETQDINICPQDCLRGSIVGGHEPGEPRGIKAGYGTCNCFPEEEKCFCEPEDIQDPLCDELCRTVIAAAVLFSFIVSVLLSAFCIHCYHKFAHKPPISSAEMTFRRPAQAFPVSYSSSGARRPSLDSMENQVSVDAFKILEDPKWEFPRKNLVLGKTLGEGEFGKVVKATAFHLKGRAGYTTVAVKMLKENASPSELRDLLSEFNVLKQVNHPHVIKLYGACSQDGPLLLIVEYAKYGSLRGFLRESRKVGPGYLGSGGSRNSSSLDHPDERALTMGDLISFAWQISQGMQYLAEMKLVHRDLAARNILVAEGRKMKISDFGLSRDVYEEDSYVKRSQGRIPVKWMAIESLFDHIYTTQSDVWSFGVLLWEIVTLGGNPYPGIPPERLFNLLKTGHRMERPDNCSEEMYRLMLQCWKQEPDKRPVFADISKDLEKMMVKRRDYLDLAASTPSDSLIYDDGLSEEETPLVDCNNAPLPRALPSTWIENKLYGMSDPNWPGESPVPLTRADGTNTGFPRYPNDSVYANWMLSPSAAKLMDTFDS
T1 sequence (P35968 20-1356): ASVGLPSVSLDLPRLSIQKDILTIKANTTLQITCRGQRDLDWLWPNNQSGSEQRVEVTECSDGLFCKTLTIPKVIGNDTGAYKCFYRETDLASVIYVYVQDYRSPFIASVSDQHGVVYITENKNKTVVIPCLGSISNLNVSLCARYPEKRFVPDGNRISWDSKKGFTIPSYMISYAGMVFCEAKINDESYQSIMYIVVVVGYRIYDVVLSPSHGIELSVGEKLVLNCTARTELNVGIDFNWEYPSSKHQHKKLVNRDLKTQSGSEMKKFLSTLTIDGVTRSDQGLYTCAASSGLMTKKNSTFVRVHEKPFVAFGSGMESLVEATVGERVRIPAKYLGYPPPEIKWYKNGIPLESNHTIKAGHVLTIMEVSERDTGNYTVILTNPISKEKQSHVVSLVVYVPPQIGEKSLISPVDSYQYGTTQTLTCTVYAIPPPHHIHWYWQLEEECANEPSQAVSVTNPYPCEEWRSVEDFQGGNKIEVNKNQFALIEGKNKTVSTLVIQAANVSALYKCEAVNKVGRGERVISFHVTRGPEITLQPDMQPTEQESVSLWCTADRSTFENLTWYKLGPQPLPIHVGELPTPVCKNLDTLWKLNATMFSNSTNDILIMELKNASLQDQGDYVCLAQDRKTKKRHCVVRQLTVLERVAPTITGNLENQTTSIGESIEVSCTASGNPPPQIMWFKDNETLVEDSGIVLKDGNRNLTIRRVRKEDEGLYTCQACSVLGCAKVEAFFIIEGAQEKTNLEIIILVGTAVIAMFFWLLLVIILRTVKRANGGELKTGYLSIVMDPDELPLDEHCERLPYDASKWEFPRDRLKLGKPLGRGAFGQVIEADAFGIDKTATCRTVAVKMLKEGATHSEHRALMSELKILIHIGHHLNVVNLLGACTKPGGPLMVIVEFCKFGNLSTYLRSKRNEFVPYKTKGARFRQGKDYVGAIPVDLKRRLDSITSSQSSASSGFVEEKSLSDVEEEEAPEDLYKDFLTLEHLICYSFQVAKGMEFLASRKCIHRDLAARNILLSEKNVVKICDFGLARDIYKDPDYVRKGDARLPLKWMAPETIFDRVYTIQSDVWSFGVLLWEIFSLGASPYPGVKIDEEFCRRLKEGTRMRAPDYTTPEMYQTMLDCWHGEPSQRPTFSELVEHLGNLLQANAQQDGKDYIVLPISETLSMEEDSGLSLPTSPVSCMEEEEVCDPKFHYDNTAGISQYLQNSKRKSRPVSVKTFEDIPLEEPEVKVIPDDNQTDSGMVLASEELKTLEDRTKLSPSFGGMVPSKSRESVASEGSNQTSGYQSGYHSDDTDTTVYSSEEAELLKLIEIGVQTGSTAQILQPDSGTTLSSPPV

Structure (SMILES) | VEGFR2 growth restoration (VEGFR2) | EphB4 growth restoration (EphB4) | RET growth restoration (RET) | VEGFR1 growth restoration (VEGFR1) | IGF-1R growth restoration (IGF-1R) | EphA2 growth restoration (EphA2)
Cc1nccn2c(Nc3cccc(F)c3)c(-c3ccccc3)nc12 [compound 44, (3-Fluoro-phenyl)-(8-methyl-2-phenyl-imidazo[1,2-a]pyrazin-3-yl)-amine] | − | +++ | − | − | − | −
COc1cccc(-c2nc3c(C)nccn3c2Nc2cccc(Cl)c2)c1 [compound 48, (3-Chloro-phenyl)-[2-(3-methoxy-phenyl)-8-methyl-imidazo[1,2-a]pyrazin-3-yl]-amine] | − | ++ | − | − | − | +
COc1cccc(-c2nc3c(C)nccn3c2Nc2cccc(C)c2)c1 [compound 42, [2-(3-Methoxy-phenyl)-8-methyl-imidazo[1,2-a]pyrazin-3-yl]-m-tolyl-amine] | − | ++ | − | − | − | +
CC(C)c1nc2cnccn2c1Nc1cccc(Cl)c1 [compound 12, (3-Chloro-phenyl)-(2-isopropyl-imidazo[1,2-a]pyrazin-3-yl)-amine] | − | + | − | − | − | +
Fc1cccc(Nc2c(-c3ccccc3)nc3cnccn23)c1 [compound 26, (3-Fluoro-phenyl)-(2-phenyl-imidazo[1,2-a]pyrazin-3-yl)-amine] | − | ++ | − | − | − | −
CNc1nccn2c(Nc3cccc(Cl)c3)c(-c3ccccc3)nc12 [compound 20, N′3-(3-Chloro-phenyl)-N′8-methyl-2-phenyl-imidazo[1,2-a]pyrazine-3,8-diamine] | − | − | − | − | − | −
